≈ marks a conversion by molar mass, not a printed value.
Legend:
[1] = Terminal half life […] at 300 to 500 mg; assay type: ADME
Homo sapiens [2] = experiment: Reduction in uric acid level in healthy human serum at 400 mg, po BID; assay type: functional
[3] = Tmax in fasted human at 400 mg, po every 12 hrs measured on day 8; assay type: ADME, organism-based; conditions: in vivo
[4] = Cmax in human plasma at 500 mg administered as multiple doses, BID; assay type: ADME, organism-based; design: dose 500 mg
[5] = molecular target: T1, Solute carrier family 22 member 12 (Homo sapiens, UniProt Q96S37); experiment: Inhibition of human URAT-1 assessed as increase in renal uric acid excretion; design: species or system Kidney
T1 sequence (Q96S37 whole entry): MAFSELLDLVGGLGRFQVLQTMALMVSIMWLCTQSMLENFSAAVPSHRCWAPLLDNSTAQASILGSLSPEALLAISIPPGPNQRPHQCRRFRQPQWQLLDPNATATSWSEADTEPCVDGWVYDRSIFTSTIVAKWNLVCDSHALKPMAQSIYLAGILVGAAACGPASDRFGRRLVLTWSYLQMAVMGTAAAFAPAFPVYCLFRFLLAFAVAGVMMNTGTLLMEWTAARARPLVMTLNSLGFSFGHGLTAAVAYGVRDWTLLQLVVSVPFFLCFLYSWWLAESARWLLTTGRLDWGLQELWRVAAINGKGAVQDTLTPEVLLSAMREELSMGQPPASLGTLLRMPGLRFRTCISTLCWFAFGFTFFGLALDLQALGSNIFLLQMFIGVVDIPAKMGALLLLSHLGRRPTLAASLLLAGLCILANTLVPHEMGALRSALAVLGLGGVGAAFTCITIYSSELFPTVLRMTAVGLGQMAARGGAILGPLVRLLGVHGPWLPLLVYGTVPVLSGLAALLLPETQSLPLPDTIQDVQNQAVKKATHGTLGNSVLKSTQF

[6] = tested on: Human immunodeficiency virus 1; experiment: Antiviral activity against HIV1 infected in fasted human assessed as decrease in log10 HIV RNA copies/ml at 600 mg, po […] followed by a single dose on day 8 measured on day 9 relative to pooled placebo control; assay type: functional
[7] = Cmax in human plasma at 300 mg administered as multiple doses, BID; assay type: ADME, organism-based; design: dose 300 mg
[8] = Cmax in fasted human plasma at 400 mg, po every 12 hrs measured on day 8; assay type: ADME, organism-based; design: dose 400 mg, route oral
[9] = Plasma protein binding in rat; assay type: ADME, cell-free; conditions: read-out: PPB
[10] = Drug concentration at steady state in fasted human plasma at 1000 mg, po every 24 hrs measured on day 8; assay type: ADME, organism-based; conditions: read-out: Drug uptake
[11] = Drug excretion in rat urine; assay type: ADME, tissue-based; conditions: read-out: Activity
[12] = Tmax in fasted human at 1000 mg, po every 24 hrs measured on day 8; assay type: ADME, organism-based; conditions: in vivo
[13] = tested on: Human immunodeficiency virus 1; experiment: Antiviral activity against HIV1 infected in fasted human assessed as decrease in log10 HIV RNA copies/ml at 400 mg, po BID for 7 days as four modified-release capsules followed by a single dose on day 8 measured on day 9 relative to pooled placebo control; assay type: functional
[14] = Drug concentration at steady state in fasted human plasma at 400 mg, po every 12 hrs measured on day 8; assay type: ADME, organism-based; conditions: read-out: Drug uptake
[15] = tested on: Human immunodeficiency virus 1; experiment: Antiviral activity against HIV1 infected in fasted human assessed as decrease in log10 HIV RNA copies/ml at 800 mg, po […] followed by a single dose on day 8 measured on day 9 relative to pooled placebo control; assay type: functional
[16] = AUC (0 to 12 hrs) in human plasma at 500 mg administered as multiple doses, BID; assay type: ADME, organism-based; design: dose 500 mg, time < 12 hr
[17] = Drug excretion in dog urine; assay type: ADME, Canis lupus familiaris; conditions: read-out: Activity
[18] = tested on: Human immunodeficiency virus 1; experiment: Antiviral activity against HIV1 infected in fasted human assessed as decrease in plasma viral log10 RNA copies/ml at 400 mg, po BID for 7 days as four modified-release capsules followed by a single dose on day 8 measured on day 9 relative to pooled placebo control; assay type: functional
[19] = Drug concentration at steady state in fasted human plasma 600 mg, po every 24 hrs measured on day 8; assay type: ADME, organism-based; conditions: read-out: Drug uptake
[20] = tested on: Human immunodeficiency virus 1; experiment: Antiviral activity against HIV1 infected in fasted human assessed as viral load decay rate as viral log10 RNA copies/ml/day at 400 mg, po BID for 7 days as four modified-release capsules followed by a single dose on day 8 measured on day 9; assay type: functional
Homo sapiens [21] = experiment: Reduction in uric acid level in healthy human serum at 1000 mg, po administered every day; assay type: ADME, organism-based; conditions: in vivo
[22] = Renal clearance in human; assay type: ADME, organism-based, Kidney; conditions: in vivo, read-out: CL_renal
[23] = tested on: Human immunodeficiency virus 1; experiment: Antiviral activity against HIV1 infected in human assessed as change in CD4 expressing T-cell count from baseline at 1000 mg, po administered every day as five enteric-coated tablets followed by a single dose on day 8 measured on day 9 relative to pooled placebo control; assay type: functional
[24] = Half life in fasted human at 600 mg, po every 24 hrs measured on day 8; assay type: ADME, organism-based; conditions: in vivo
[25] = Drug excretion in rhesus monkey urine; assay type: ADME, Macaca mulatta; conditions: read-out: Activity
[26] = Cmax in fasted human plasma at 600 mg, po every 24 hrs measured on day 8; assay type: ADME, organism-based; design: dose 600 mg, route oral
[27] = Tmax in fasted human plasma at 600 mg; assay type: ADME, organism-based
[28] = Renal clearance in dog; assay type: ADME, organism-based, Canis lupus familiaris, Kidney; conditions: in vivo, read-out: CL_renal
[29] = tested on: Human immunodeficiency virus 1; experiment: Antiviral activity against HIV1 infected in fasted human assessed as decrease in plasma viral log10 RNA copies/ml at 800 mg, po […] followed by a single dose on day 8 measured on day 9 relative to pooled placebo control; assay type: functional
[30] = tested on: Human immunodeficiency virus 1; experiment: Antiviral activity against HIV1; assay type: functional, organism-based
[31] = Tmax in fasted human at 800 mg, po every 24 hrs measured on day 8; assay type: ADME, organism-based; conditions: in vivo
[32] = tested on: Human immunodeficiency virus 1; experiment: Antiviral activity against HIV1 infected in human assessed as change in CD8 expressing T-cell count from baseline at 400 mg, po BID for 7 days as four modified-release capsules followed by a single dose on day 8 measured on day 9 relative to pooled placebo control; assay type: functional
[33] = Cmax in fasted human at 800 mg, po every 24 hrs measured on day 8; assay type: ADME, organism-based; design: dose 800 mg, route oral; conditions: in vivo

O=C(CSc1nnc(Br)n1-c1ccc(C2CC2)c2ccccc12)Nc1ccc(C(=O)O)cc1Cl
half-life [1]: 10.4 h | Activity (Homo sapiens [2]): 88 µmol/L | Tmax [3]: 1.5 h | Cmax [4]: 746 ng/mL | Activity [5]: Active | Activity [6]: -1.394 mL⁻¹ | Cmax [7]: 667 ng/mL | Cmax [8]: 2990 ng/mL | fraction unbound [9]: < 0.01 | concentration at 24 h [10]: 515 ng/mL | dose excreted [11]: < 0.06% | Tmax [12]: 3 h | Activity [13]: -1.948 mL⁻¹ | concentration at 12 h [14]: 505 ng/mL | Activity [15]: -1.619 mL⁻¹ | AUC at 12 h [16]: 3770 ng·h/mL | dose excreted [17]: < 0.06% | Activity [18]: -2.0608 mL⁻¹ | concentration at 24 h [19]: 276 ng/mL | Activity [20]: -0.25 mL⁻¹ | Activity (Homo sapiens [21]): 88 µmol/L | CL renal [22]: ≤ 1 mL/min | Activity [23]: 90.48 /mm3 | half-life [24]: 7.09 h | dose excreted [25]: < 0.06% | Cmax [26]: 2420 ng/mL | Tmax [27]: 4.92 h | CL renal [28]: ≤ 1 mL/min | Activity [29]: -1.7426 mL⁻¹ | EC50 [30]: 1.7 ng/mL (≈ 3.05 nM) | Tmax [31]: 3 h | Activity [32]: -39.17 /mm3 | Cmax [33]: 1910 ng/mL

From ChEMBL document CHEMBL1629701, “Phase 2a randomized controlled trial of short-term activity, safety, and pharmacokinetics of a novel nonnucleoside reverse transcriptase inhibitor, RDEA806, in HIV-1-positive, antiretroviral-naive subjects” (Antimicrob Agents Chemother, 2010)
